# “And” between values parts separate entries of the source, which are not always exact repeats. Equal entries are not always repeated. Square brackets hold non-standard residues; d marks the D form. Peptide text beside a SMILES is read from it. ξ: configuration not given here. Ile(3ξ) = CCC(C)[C@H](N)C(=O)O; Thr(3ξ) = CC(O)[C@H](N)C(=O)O; Nle = CCCC[C@H](N)C(=O)O
# Legend:
# healthy adult volunteers = test: Multiple dose study in healthy volunteers (Examples 4 and 7), pharmacodynamics: plasma citrulline, Bristol stool scale, body weight; format: in vivo, human; settings: for Citrulline, estimate of the difference: 6 weekly SC doses
# Experimental: The endogenous marker citrulline was selected to assess the pharmacodynamic effect of apraglutide. Citrulline was detected in all baseline and post-dose samples. Three baseline citrulline samples were obtained during two baseline visits between screening and the first dosing day and before dosing on the first dosing day. […] At baseline, the mean citrulline range was 5.3825-5.6207 μg/mL for placebo, 5.3900-6.2028 μg/mL for 1 mg apraglutide, 4.8983-5.3023 μg/mL for 5 mg apraglutide and 5.0730-5.4690 μg/mL for 10 mg apraglutide. In the placebo group, the mean citrulline concentration remained relatively stable over the trial, ranging from 4.9735 to 5.8253 μg/mL.
# In short, the first contrast tested compared the mean Rpre-dose at the first time point (week 1) to the pooled mean Rpre-dose over all remaining time points (week 2 to 6). The second contrast compared the mean at week 2 to the pooled mean over week 3 to 6, etc. Testing continued until the contrast was not statistically significant. The mean Rpre-dose at week 6 for 10 mg against mean Rpre-dose over week 5 (0.8720, 95% CI: 0.1590; 1.5850 and p=0.0172) was statistically significant.
# Besides citrulline, the Bristol stool scale and body weight were assessed as pharmacodynamic endpoints. In contrast to citrulline and weight, the Bristol stool scale is a discrete variable. Subjects assessed their stool in the past 24 hours using the Bristol stool scale ranging from constipation (type 1) to diarrhea (type 7). No stool in the past 24 hours was recorded as zero. As two subjects (assigned to either 1 or 5 mg) reported no stool preceding the first dose, the screening Bristol stool scale score was also taken into account when determining the baseline Bristol stool scale score.
# Citrulline, BSS and weight data are analyzed with a mixed model analysis of variance with fixed factors treatment, time and treatment by time, random factor subject, and the average prevalue as covariate. The average pre-value was calculated from all pre-values after screening and before dosing, except for BSS, where the screening value was also used to calculate the average baseline.
# For all pharmacodynamic endpoints (citrulline, Bristol stool scale and weight), the pre-value has been used as covariate. The average pre-value was calculated from all pre-values after screening and before dosing, except for the Bristol stool scale, where the screening value was also used to calculate the average baseline. The average pre-value of citrulline was also used as covariate in the MCP-MOD, except in the Sigmoid Emax model. This was addressed by subtracting the pre-value times the slope of the linear model of the MCP part from the values of week 6.
# [1] = human, sc, 5 mg
# Description: Plasma citrulline was used as a pharmacodynamic (“PD”) marker to describe the effect of apraglutide. Similar to the pharmacokinetic (“PK”) model development, the PK/PD model was developed for the healthy individuals from studies GLY-101-2015 and TA799-002 only. For development of the PD model, the PD observations were fitted together with the PK observations using the final PK model with its structure, residual error-, covariates- and random effects-models. The starting model was a turnover model where plasma citrulline was constantly synthesized and degraded with the synthesis rate ksyn and the degradation rate kdeg. Plasma apraglutide stimulated citrulline synthesis via a sigmoid Emax relationship with the baseline citrulline level R0, the half-maximal effect at the concentration EC50, the maximal effect Emax, and a Hill coefficient gamma. It was assumed that citrulline turnover was in steady state such that citrulline synthesis was determined solely by citrulline baseline and degradation. The population PK/PD of plasma apraglutide was established with data from two studies in healthy volunteers and two studies with SBS patients that tested doses between 2.5 and 50 mg SC.
# The population PK/PD model was used to predict plasma apraglutide exposure and plasma citrulline trough concentration-time profiles with and without inter-individual variability for individuals with body weights between 40 and 120 kg receiving weekly doses of 2.5, 5, or 10 mg SC. […] Apraglutide exposure for body weights between 40 and 120 kg and apraglutide SC doses of 2.5, 5, or 10 mg was compared to post-hoc exposure estimates of SBS patients. Bracketing at a body weight of 50 kg between doses of 2.5 and 5 mg was simulated.
# Plasma citrulline was described by a turnover model and maximal PD effect model.
# [2] = 5 mg, over the whole trial period
# [3] = 10 mg, over the whole trial period (N = 5)
compound,measurement,setting,value
"CCCC[C@H](NC(=O)[C@H](CCC(=O)O)NC(=O)[C@H](CC(=O)O)NC(=O)[C@H](CO)NC(=O)[C@H](Cc1ccccc1)NC(=O)[C@H](CO)NC(=O)CNC(=O)[C@H](CC(=O)O)NC(=O)CNC(=O)[C@@H](N)Cc1c[nH]cn1)C(=O)N[C@H](Cc1ccccc1)C(=O)N[C@H](C(=O)N[C@H](C(=O)N[C@@H](CC(C)C)C(=O)N[C@@H](CC(=O)O)C(=O)N[C@@H](CC(C)C)C(=O)N[C@@H](CC(C)C)C(=O)N[C@@H](C)C(=O)N[C@@H](C)C(=O)N[C@@H](CCCNC(=N)N)C(=O)N[C@@H](CC(=O)O)C(=O)N[C@@H](Cc1ccccc1)C(=O)N[C@H](C(=O)N[C@@H](CC(N)=O)C(=O)N[C@@H](Cc1c[nH]c2ccccc12)C(=O)N[C@@H](CC(C)C)C(=O)N[C@H](C(=O)N[C@@H](CCC(N)=O)C(=O)N[C@H](C(=O)N[C@@H](CCCCN)C(=O)N[C@H](C(=O)N[C@H](C(=O)N[C@@H](CC(=O)O)C(N)=O)C(C)O)C(C)CC)C(C)O)C(C)CC)C(C)CC)C(C)CC)C(C)O (stereo partly drawn) [apraglutide, L-histidyl-glycyl-L-aspartyl-glycyl-L-seryl-L-phenylalanyl-L-seryl-L-aspartyl-L-glutamyl-L-norleucyl-D-phenylalanyl-L-threonyl-Lisoleucyl-L-leucyl-L-aspartyl-L-leucyl-L-leucyl-L-alanyl-L-alanyl-L-arginyl-L-aspartyl-L-phenylalanyl-L-isoleucyl-L-asparaginyl-Ltryptophanyl-L-leucyl-L-isoleucyl-L-glutaminyl-L-threonyl-L-lysyl-L-isoleucyl-L-threonyl-Laspartic acid amide] (H-HGDGSFSDE[Nle][dF][Thr(3ξ)][Ile(3ξ)]LDLLAARDF[Ile(3ξ)]NWL[Ile(3ξ)]Q[Thr(3ξ)]K[Ile(3ξ)][Thr(3ξ)]D-NH2)","Citrulline Rmax, geometric mean","healthy adult volunteers; 5 mg, last dose 6",8.0024 µg/mL
same,"Citrulline Rpre-dose, arithmetic mean ± SD","healthy adult volunteers; 5 mg, last dose 6",7.2498 ± 1.2461 µg/mL
same,"Citrulline Rpre-dose, geometric mean","healthy adult volunteers; 5 mg, last dose 6",7.1475 µg/mL
same,"Citrulline Rmax, arithmetic mean ± SD","healthy adult volunteers; 5 mg, last dose 6, listed as Apraglutide",8.1577 ± 1.7108 µg/mL
same,"Citrulline Rmax, arithmetic mean ± SD",healthy adult volunteers; [2],8.2550 ± 1.7807 µg/mL
same,"Citrulline Rmax, geometric mean",healthy adult volunteers; [2],8.0870 µg/mL
same,"Citrulline Rtmax, median","healthy adult volunteers; 5 mg, whole trial period, from first dose",38.9 days
same,Difference between mean Rmax over the whole trial and Rmax after last dose,healthy adult volunteers; 10 mg,0.0362 µg/mL
same,"No stool in the past 24 hours, number of reports",healthy adult volunteers; 10 mg group (1 subject),1 time
same,Steady-state contrast: mean citrulline Rpre-dose at week 6 against week 5,"healthy adult volunteers; 10 mg, Helmert's approach",0.8720
same,Highest mean citrulline value following the first weekly SC dose,"healthy adult volunteers; 10 mg, after 7 days",7.8487 µg/mL
same,"Citrulline Rtmax, median","healthy adult volunteers; 10 mg, after last dose 6 (N = 5)",3.9 days
same,"Citrulline Rpre-dose, arithmetic mean ± SD","healthy adult volunteers; 10 mg, last dose 1",7.8487 ± 2.7273 µg/mL
same,"Citrulline Rpre-dose, geometric mean","healthy adult volunteers; 10 mg, last dose 1",7.4048 µg/mL
same,"Citrulline Rpre-dose, arithmetic mean ± SD","healthy adult volunteers; 10 mg, last dose 2",7.6058 ± 2.3210 µg/mL
same,"Citrulline Rpre-dose, geometric mean","healthy adult volunteers; 10 mg, last dose 2",7.2438 µg/mL
same,"Citrulline Rpre-dose, arithmetic mean ± SD","healthy adult volunteers; 10 mg, last dose 3",7.5180 ± 2.1369 µg/mL
same,"Citrulline Rpre-dose, geometric mean","healthy adult volunteers; 10 mg, last dose 3",7.2331 µg/mL
same,"Citrulline Rpre-dose, arithmetic mean ± SD","healthy adult volunteers; 10 mg, last dose 4 (N = 5)",7.2060 ± 2.5488 µg/mL
same,"Citrulline Rpre-dose, geometric mean","healthy adult volunteers; 10 mg, last dose 4 (N = 5)",6.8103 µg/mL
same,"Citrulline Rpre-dose, arithmetic mean ± SD","healthy adult volunteers; 10 mg, last dose 5 (N = 5)",7.1994 ± 2.5111 µg/mL
same,"Citrulline Rpre-dose, geometric mean","healthy adult volunteers; 10 mg, last dose 5 (N = 5)",6.7908 µg/mL
same,"Citrulline Rmax, arithmetic mean ± SD","healthy adult volunteers; 10 mg, last dose 6 (N = 5)",8.7254 µg/mL
same,"Citrulline Rmax, geometric mean","healthy adult volunteers; 10 mg, last dose 6 (N = 5)",8.2533 µg/mL
same,"Citrulline Rpre-dose, arithmetic mean ± SD","healthy adult volunteers; 10 mg, last dose 6 (N = 5)",8.0714 ± 3.0514 µg/mL
same,"Citrulline Rpre-dose, geometric mean","healthy adult volunteers; 10 mg, last dose 6 (N = 5)",7.5618 µg/mL
same,"Citrulline Rmax, arithmetic mean ± SD","healthy adult volunteers; 10 mg, last dose 6 (N = 5), listed as Apraglutide",8.7254 ± 3.0145 µg/mL
same,"Citrulline Rmax, arithmetic mean ± SD",healthy adult volunteers; [3],8.7616 ± 2.9900 µg/mL
same,"Citrulline Rmax, geometric mean",healthy adult volunteers; [3],8.2953 µg/mL
same,"Citrulline Rt1/2, individual subjects","healthy adult volunteers; 10 mg, two subjects",6.5 days and 11.0 days
same,"Citrulline Rtmax, median","healthy adult volunteers; 10 mg, whole trial period, from first dose (N = 5)",36.9 days
same,Time after first dose at which increases in citrulline were observed,"healthy adult volunteers; 1, 5 or 10 mg",2 days
same,"Bristol stool scale with zeroes set to missing, estimate of the difference",healthy adult volunteers; Placebo - 1 mg,−0.6
same,"Bristol stool scale, estimate of the difference",healthy adult volunteers; Placebo - 1 mg,−0.9
same,"Weight, estimate of the difference",healthy adult volunteers; Placebo - 1 mg,-0.750 kg
same,"Citrulline, estimate of the difference",healthy adult volunteers; Placebo - 1 mg,0.3146 µg/mL
same,"Citrulline, estimate of the difference","healthy adult volunteers; Placebo - 1 mg, listed as Apraglutide",0.31 [95% CI: −0.4371; μg/mL
same,"Bristol stool scale with zeroes set to missing, estimate of the difference",healthy adult volunteers; Placebo - 5 mg,−0.4
same,"Bristol stool scale, estimate of the difference",healthy adult volunteers; Placebo - 5 mg,−1.0
same,"Weight, estimate of the difference",healthy adult volunteers; Placebo - 5 mg,-0.865 kg
same,"Citrulline, estimate of the difference",healthy adult volunteers; Placebo - 5 mg,1.2574 µg/mL
same,"Citrulline, estimate of the difference","healthy adult volunteers; Placebo - 5 mg, listed as Apraglutide",1.26 [95% CI: 0.5037; μg/mL
same,"Bristol stool scale with zeroes set to missing, estimate of the difference",healthy adult volunteers; Placebo - 10 mg,−0.5
same,"Bristol stool scale, estimate of the difference",healthy adult volunteers; Placebo - 10 mg,−0.6
same,"Weight, estimate of the difference",healthy adult volunteers; Placebo - 10 mg,-0.331 kg
same,"Citrulline, estimate of the difference",healthy adult volunteers; Placebo - 10 mg,1.6343 µg/mL
same,"Citrulline, estimate of the difference","healthy adult volunteers; Placebo - 10 mg, listed as Apraglutide",1.63 [95% CI: 0.8809; μg/mL
same,Variability in citrulline Rmax explained by AUCtau (R squared),healthy adult volunteers; week 6,26%
same,Increase of maximum citrulline response per 100 d*ng/mL increase in AUCtau,"healthy adult volunteers; week 6, regression line",390 ng/mL
same,"Time of peak plasma concentration (Cmax), population PK/PD model estimate",[1],1.39 days

# Reference: patent US11766470B2, “Manufacture, formulation and dosing of apraglutide” (VectivBio AG, priority 2020, dated 2023)
